The source made the active and inactive calls. The rule behind the calls is not given here.
Assays:
Assay type in all cases: protein assay
[1] = target: T1, Alpha-1,2-mannosidase (BT_1878) (Bacteroides thetaiotaomicron) (UniProt Q8A6K3); experiment: Activity of Bacteroides thetaiotaomicron GH92 alpha-mannosidase GH92 alpha-mannosidase 1878 assessed as mannose release at 1 mM after 16 hrs by HPLC relative to untreated control after 16 hrs by HPLC
T1 sequence (whole entry): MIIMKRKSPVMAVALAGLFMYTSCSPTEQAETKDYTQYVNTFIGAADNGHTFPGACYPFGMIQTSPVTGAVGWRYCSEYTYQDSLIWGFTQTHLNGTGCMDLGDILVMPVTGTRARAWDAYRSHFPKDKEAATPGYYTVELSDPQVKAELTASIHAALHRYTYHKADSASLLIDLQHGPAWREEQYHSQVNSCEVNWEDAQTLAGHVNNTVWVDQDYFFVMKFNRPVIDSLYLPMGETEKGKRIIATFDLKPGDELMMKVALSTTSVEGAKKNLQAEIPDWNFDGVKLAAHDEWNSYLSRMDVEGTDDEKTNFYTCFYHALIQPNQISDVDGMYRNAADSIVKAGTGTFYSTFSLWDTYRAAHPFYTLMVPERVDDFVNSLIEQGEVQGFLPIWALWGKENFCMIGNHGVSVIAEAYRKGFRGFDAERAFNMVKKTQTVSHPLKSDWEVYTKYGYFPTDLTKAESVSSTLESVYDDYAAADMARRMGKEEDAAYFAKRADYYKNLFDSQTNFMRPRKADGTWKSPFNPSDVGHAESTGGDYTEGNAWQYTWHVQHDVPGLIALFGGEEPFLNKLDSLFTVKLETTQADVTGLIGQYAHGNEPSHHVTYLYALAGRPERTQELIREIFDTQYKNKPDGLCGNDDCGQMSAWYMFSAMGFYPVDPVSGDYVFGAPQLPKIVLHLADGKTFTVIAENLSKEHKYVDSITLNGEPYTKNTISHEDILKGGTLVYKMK

[2] = target: T2, Alpha-1,2-mannosidase (BT_3530) (Bacteroides thetaiotaomicron) (UniProt Q8A1X8); experiment: Activity of Bacteroides thetaiotaomicron GH92 alpha-mannosidase GH92 alpha-mannosidase 3530 assessed as mannose release at 1 mM after 16 hrs by HPLC relative to untreated control after 16 hrs by HPLC
T2 sequence (whole entry): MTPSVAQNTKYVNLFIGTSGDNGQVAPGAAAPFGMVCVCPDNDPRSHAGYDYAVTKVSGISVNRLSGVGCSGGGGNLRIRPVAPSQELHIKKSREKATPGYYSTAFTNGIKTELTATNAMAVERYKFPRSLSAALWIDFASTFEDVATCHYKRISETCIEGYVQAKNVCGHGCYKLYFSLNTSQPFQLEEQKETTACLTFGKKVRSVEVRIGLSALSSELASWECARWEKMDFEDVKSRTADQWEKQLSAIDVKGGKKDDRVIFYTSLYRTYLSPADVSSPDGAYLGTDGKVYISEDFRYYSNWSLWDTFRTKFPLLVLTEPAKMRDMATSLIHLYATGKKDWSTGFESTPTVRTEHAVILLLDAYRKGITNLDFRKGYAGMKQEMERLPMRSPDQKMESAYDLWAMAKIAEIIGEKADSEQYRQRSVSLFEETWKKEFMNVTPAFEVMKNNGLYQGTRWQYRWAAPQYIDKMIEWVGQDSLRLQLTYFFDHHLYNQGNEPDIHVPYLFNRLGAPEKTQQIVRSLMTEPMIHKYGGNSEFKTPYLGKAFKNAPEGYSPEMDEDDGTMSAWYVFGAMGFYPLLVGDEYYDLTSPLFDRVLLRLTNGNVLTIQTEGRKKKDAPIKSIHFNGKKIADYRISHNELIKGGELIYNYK

[3] = target: T3, Alpha-1,2-mannosidase (BT_2199) (Bacteroides thetaiotaomicron) (UniProt Q8A5N9); experiment: Activity of Bacteroides thetaiotaomicron GH92 alpha-mannosidase GH92 alpha-mannosidase 2199 assessed as mannose release at 1 mM after 16 hrs by HPLC relative to untreated control after 16 hrs by HPLC
T3 sequence (whole entry): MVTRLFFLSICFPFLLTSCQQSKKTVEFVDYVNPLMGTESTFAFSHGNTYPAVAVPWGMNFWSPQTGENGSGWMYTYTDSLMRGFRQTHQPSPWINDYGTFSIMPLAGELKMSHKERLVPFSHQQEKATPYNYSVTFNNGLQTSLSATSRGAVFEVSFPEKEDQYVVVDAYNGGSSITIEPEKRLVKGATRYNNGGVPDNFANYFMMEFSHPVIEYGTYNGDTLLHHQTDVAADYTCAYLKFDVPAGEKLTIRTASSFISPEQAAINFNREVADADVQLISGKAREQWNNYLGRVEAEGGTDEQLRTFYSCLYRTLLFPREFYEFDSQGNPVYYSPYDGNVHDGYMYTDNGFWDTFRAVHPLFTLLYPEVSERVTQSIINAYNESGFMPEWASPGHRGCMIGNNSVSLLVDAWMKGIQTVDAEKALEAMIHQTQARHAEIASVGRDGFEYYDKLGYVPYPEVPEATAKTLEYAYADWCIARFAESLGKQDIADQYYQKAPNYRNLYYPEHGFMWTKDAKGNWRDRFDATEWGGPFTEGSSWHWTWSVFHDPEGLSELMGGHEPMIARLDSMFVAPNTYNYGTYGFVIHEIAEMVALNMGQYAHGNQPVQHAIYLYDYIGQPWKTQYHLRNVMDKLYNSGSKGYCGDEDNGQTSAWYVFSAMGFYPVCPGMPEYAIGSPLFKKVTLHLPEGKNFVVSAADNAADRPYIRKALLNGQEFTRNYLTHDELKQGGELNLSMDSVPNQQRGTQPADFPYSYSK

Row | Activity [1] [%] | Activity [2] | Activity [3] | Structure (SMILES)
1 | 1.1 | inactive | inactive | OC[C@H]1O[C@H](OC[C@H]2O[C@H](O)[C@@H](O)[C@@H](O)[C@@H]2O)[C@@H](O)[C@@H](O)[C@@H]1O
2 | 3.6 | 100% | 0.12% | OC[C@H]1O[C@H](O[C@H]2[C@H](O)[C@H](O)[C@@H](O)O[C@@H]2CO)[C@@H](O)[C@@H](O)[C@@H]1O
3 | 4.5 | inactive | 100% | OC[C@H]1O[C@H](O[C@H]2[C@@H](O)[C@H](O)[C@@H](CO)O[C@@H]2O)[C@@H](O)[C@@H](O)[C@@H]1O
4 |  | 58% | inactive | OC[C@H]1O[C@H](O[C@@H]2[C@H](O)[C@@H](O)O[C@H](CO)[C@H]2O)[C@@H](O)[C@@H](O)[C@@H]1O

— ChEMBL document CHEMBL1250451, “Mechanistic insights into a Ca2+-dependent family of alpha-mannosidases in a human gut symbiont” (Nat Chem Biol, 2010)
